Reference: ChEMBL document CHEMBL1149930, “3-Hydroxy-19-nor-17-pregna-1,3,5(10)-triene-21,17-carbolactone as inhibitor of 17-hydroxysteroid dehydrogenase type 2” (Bioorg Med Chem Lett, 1994)

Legend:
[1] = biological target: T1, 17-beta-hydroxysteroid dehydrogenase type 2 (Homo sapiens, UniProt P37059); test: Inhibitory constant against human placenta 17-beta-hydroxysteroid dehydrogenase type 2 (17-beta-HSD type 2)
T1 sequence (P37059 whole entry): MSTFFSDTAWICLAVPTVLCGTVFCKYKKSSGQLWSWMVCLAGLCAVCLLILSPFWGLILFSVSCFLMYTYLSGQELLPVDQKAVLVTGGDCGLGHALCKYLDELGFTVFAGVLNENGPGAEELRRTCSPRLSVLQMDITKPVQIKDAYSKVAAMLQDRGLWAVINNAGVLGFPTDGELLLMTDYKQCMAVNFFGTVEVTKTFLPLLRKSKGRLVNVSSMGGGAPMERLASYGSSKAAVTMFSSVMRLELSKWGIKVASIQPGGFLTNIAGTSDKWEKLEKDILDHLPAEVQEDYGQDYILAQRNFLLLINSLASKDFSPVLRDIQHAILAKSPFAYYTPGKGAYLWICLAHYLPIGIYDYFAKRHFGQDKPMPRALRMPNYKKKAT

[2] = biological target: T1, 17-beta-hydroxysteroid dehydrogenase type 2; test: Inhibitory activity against human placenta 17-beta-hydroxysteroid dehydrogenase type 2 (17-beta-HSD type 2)

Q: With `C[C@]12CC[C@@H]3c4ccc(O)cc4CC[C@H]3[C@@H]1CC[C@@]21CCC(=O)O1` as the compound, how does the Ki [1] read?
A: 250 nM

Q: What about the IC50 [2] of the same compound?
A: 270 nM

Q: `C[C@]12CCC3C4=CCC(=O)C=C4CCC3C1CC[C@@]21CCC(=O)O1` (stereo partly drawn) was tested. Which IC50 [2] did it give?
A: 1410 nM
